Measured values reported in patent US20200385396A1, “Compond for treatment or prevention of obesity or diseases related to obesity, and application thereof” (SHANGHAI INSTITUTES FOR BIOLOGICAL SCIENCES, CHINESE …, priority 2017, published 2020).

Experiment: Solubility (Table C)
Assay type: physicochemical
Conditions: solvent named in Table C

| Compound | Solubility |
| --- | --- |
| Cc1cccc2c1N(C)Cc1cc(OCc3cc(C)n(C)n3)ccc1-2 [Hcj221d] | DMSO |
| COc1cc2c(=O)n(C)c3c(C(C)O)cccc3c2cc1OC (centres unmarked) [Hgsy-56] | DMSO |
| COc1cc2c(cc1OC)-c1cccc(OC)c1N(C)C2 [Hgsy-60] | DMSO |
| CCn1c(=O)c2cc(OC)c(OC)cc2c2cccc(C3OCCO3)c21 [Hgsy-69] | DMSO |
| C/C=C/c1cccc2c3cc(OC)c(OC)cc3c(=O)n(C)c12 [Hgsy-75] | DMSO |
| CCN1Cc2cc(OC)c(OC)cc2-c2cccc(CO)c21 [Hgsy-48] | DMSO |
| C#CCOc1ccc2c(c1)CN(C)c1c(C)cccc1-2 [Hcj16d-a] | DMSO |
| C=Cc1cccc2c3cc(OC)c(OC)cc3c(=O)n(C)c12 [Hgsy-58] | DMSO |
| CCn1c(=O)c2cc(OC)ccc2c2cccc(C(C)O)c21 (centres unmarked) [Hgsy-62] | DMSO |
| CCn1c(=O)c2cc(OC)c(OC)cc2c2cccc(C=O)c21 [Hgsy-51] | DMSO |
| COc1cc2c(cc1OC)-c1cccc(C)c1NC2 [Hcj92-a] | DMSO |
| COc1cc2c(cc1OC)-c1cccc(C(C)O)c1N(C)C2 (centres unmarked) [Hgsy-59] | DMSO |
| C/C=C/c1cccc2c3ccc(OC)cc3c(=O)n(CCCC)c12 [Hgsy-97] | DMSO |
| CCN1Cc2cc(O)ccc2-c2cccc(C)c21 [Hcj36] | DMSO |
| C#CCOc1cc2c(cc1OCC#C)-c1cccc(C)c1N(CC)C2 [Hcj46-d] | DMSO |
| C=Cc1cccc2c3ccc(OC)cc3c(=O)n(CC)c12 [Hgsy-67] | DMSO |

| Compound | Solubility |
| --- | --- |
| CCCN1Cc2cc(OC)ccc2-c2cccc(C(C)O)c21 (centres unmarked) [Hgsy-66] | DMSO |
| CCCn1c(=O)c2cc(OC)ccc2c2cccc(C(C)O)c21 (centres unmarked) [Hgsy-64] | DMSO |
| CCCCn1c(=O)c2cc(OC)c(OC)cc2c2cccc(C(C)O)c21 (centres unmarked) [Hgsy-53] | DMSO |
| C/C=C/c1cccc2c3ccc(OC)cc3c(=O)n(C)c12 [Hgsy-89] | DMSO |
| COc1ccc2c(c1)CN(C)c1c(C)cccc1-2 [Hcj15] | DMSO |
| CCCCn1c(=O)c2cc(OC)c(OC)cc2c2cccc(CO)c21 [Hgsy-43] | DMSO |
| C=CC(O)c1cccc2c3cc(OC)c(OC)cc3c(=O)n(CC)c12 (centres unmarked) [Hgsy-25] | DMSO |
| CCCCN1Cc2cc(OC)c(OC)cc2-c2cccc(CO)c21 [Hgsy-44] | DMSO |
| C=CC(O)c1cccc2c3ccc(OC)cc3c(=O)n(CC)c12 (centres unmarked) [Hgsy-3] | DMSO |
| CCn1c(=O)c2cc(OC)ccc2c2cccc(OC)c21 [Hgsy-32] | DMSO |
| CCn1c(=O)c2cc(OC)ccc2c2cccc(CO)c21 [Hgsy-31] | DMSO |
| CCN1Cc2cc(OC)c(OC)cc2-c2cccc(COC(C)=O)c21 [Hgsy-47] | DMSO |
| CCCCN1Cc2cc(OC)c(OC)cc2-c2cccc(C(C)O)c21 (centres unmarked) [Hgsy-55] | DMSO |
| C=Cc1cccc2c3ccc(OC)cc3c(=O)n(CCC)c12 [Hgsy-68] | DMSO |
| CCN1Cc2cc(O)c(OC)cc2-c2cccc(C)c21 [Hcj44-d] | DMSO |
| COc1cc2c(=O)n(C)c3c(C(C)=O)cccc3c2cc1OC [Hgsy-57] | DMSO |
